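96-well plates; 48 h exposure; 5 concentrations. Endpoints by linear interpolation between flanking doses. Not reached: highest tested concentration assigned. Abbreviation: GI50, concentration required for 50% inhibition of growth. TGI: total growth inhibition.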

Test systems include A549 NSCLC; UACC-257 melanoma; SNB-19 CNS; XF 498 CNS; ACHN renal; OVCAR-5 ovarian; OVCAR-8 ovarian; SNB-78 CNS; HCC-2998 colon; CAKI-1 renal.
Assay in all cases: growth of human tumour cells (NCI), 48 h

With `Cc1ccc(-c2cc(=O)c3cc(C)c(C)c(C(=O)O)c3o2)cc1`, the TGI in the assay with A549 NSCLC, in the assay on UACC-257 melanoma, in the assay with SNB-19 CNS, in the assay with XF 498 CNS, in the assay on ACHN renal and in the assay on OVCAR-5 ovarian was > 100 µM in each case. The TGI in the assay on OVCAR-8 ovarian, in the assay on SNB-78 CNS and in the assay on HCC-2998 colon was > 100 µM in each case.

For `N#Cc1ccc(C2C3=C(CCCC3=O)OC3=C2C(=O)c2ccccc2C3=O)cc1` (configuration not stated), the GI50 is 7660 nM in the assay with A549 NSCLC; 1550 nM with UACC-257 melanoma; 4.35 µM with SNB-19 CNS; 1.55 µM in the assay with ACHN renal; 1880 nM with CAKI-1 renal; 2.09 µM in the assay on OVCAR-5 ovarian. Besides, the figures for the GI50 in the assay with OVCAR-8 ovarian and in the assay on HCC-2998 colon were 722 nM and 3000 nM, respectively. The TGI in the assay with A549 NSCLC worked out at 22.3 µM; with UACC-257 melanoma it was 2.94 µM; in the assay on SNB-19 CNS, 16 µM; in the assay with ACHN renal, 2.89 µM; in the assay with CAKI-1 renal, 3.93 µM; with OVCAR-5 ovarian, 4.23 µM. Besides, the TGI in the assay on OVCAR-8 ovarian stood at 4.79 µM; in the assay with HCC-2998 colon, 8.38 µM.

For the molecule `O=C(O)c1ccc2c3c(ncnc13)-c1ccccc1C2=O`, the GI50 is 2230 nM in the assay with A549 NSCLC; 8600 nM with UACC-257 melanoma; 3.52 µM in the assay with SNB-19 CNS; 25.7 µM in the assay with ACHN renal; > 81100 nM in the assay with CAKI-1 renal; 37.9 µM with OVCAR-5 ovarian. The GI50 in the assay with OVCAR-8 ovarian was 47500 nM; in the assay on HCC-2998 colon it was 8520 nM. The TGI in the assay with A549 NSCLC is 4.84 µM; in the assay on UACC-257 melanoma it was > 100 µM; in the assay on SNB-19 CNS, > 100 µM; in the assay with ACHN renal, > 100 µM; in the assay with CAKI-1 renal it was > 100 µM; in the assay with OVCAR-5 ovarian, > 100 µM. The TGI in the assay with OVCAR-8 ovarian and in the assay on HCC-2998 colon was > 100 µM throughout.

As to `CSc1nc(SC)c2c(C(N)=S)[nH]nc2n1`, the TGI with A549 NSCLC is 65.6 µM; in the assay on UACC-257 melanoma, 52.5 µM; in the assay with SNB-19 CNS, 90 µM; in the assay on ACHN renal, 74.7 µM; with CAKI-1 renal, 56.5 µM; in the assay on OVCAR-8 ovarian, > 100 µM. The molecule further had a TGI with SNB-78 CNS of 85.8 µM.

Turning to `CCOc1ccc2nc(-c3cccc(OCC(=O)NC(C)C)c3)nc(Nc3ccc(-c4cn[nH]c4)cc3)c2c1`, the GI50 in the assay with A549 NSCLC is 769 nM; in the assay with UACC-257 melanoma it was 1790 nM; in the assay with SNB-19 CNS, 0.598 µM; in the assay on ACHN renal, 0.675 µM; with CAKI-1 renal it was 968 nM; with OVCAR-5 ovarian, 3.3 µM. In addition, the GI50 in the assay on OVCAR-8 ovarian was 586 nM; in the assay on HCC-2998 colon, 1450 nM. The TGI in the assay on A549 NSCLC was 3.54 µM; in the assay with UACC-257 melanoma it was 4.12 µM; in the assay with SNB-19 CNS, 3.76 µM; with ACHN renal, 2.96 µM; in the assay on CAKI-1 renal, 3.87 µM; with OVCAR-5 ovarian, 21.9 µM. The results for the TGI in the assay with OVCAR-8 ovarian and in the assay with HCC-2998 colon were 4.76 µM and 7.91 µM, respectively.

Turning to `c1cncc(-c2nc3ccccc3s2)c1`, the GI50 with A549 NSCLC is > 100000 nM; in the assay with UACC-257 melanoma, > 100000 nM; with SNB-19 CNS it was > 100 µM; in the assay on ACHN renal, 95.1 µM; in the assay with CAKI-1 renal it was > 100000 nM; with OVCAR-5 ovarian it was > 100 µM. Further, the GI50 with OVCAR-8 ovarian and with HCC-2998 colon was > 100000 nM throughout. Also, the TGI in the assay on A549 NSCLC, in the assay on UACC-257 melanoma, in the assay on SNB-19 CNS, in the assay with ACHN renal, in the assay with CAKI-1 renal and in the assay on OVCAR-5 ovarian was > 100 µM each time. Besides, the TGI in the assay on OVCAR-8 ovarian and in the assay on HCC-2998 colon was > 100 µM throughout.

Take `O=C1C2CC=CCC2C(=O)C12CCc1ccccc12` (configuration not stated): the TGI with A549 NSCLC, in the assay on XF 498 CNS, with ACHN renal, with CAKI-1 renal, in the assay on OVCAR-8 ovarian and with SNB-78 CNS was > 100 µM in each case. Besides, the TGI in the assay with HCC-2998 colon is > 100 µM.

Consider `COc1ccc2nc3cc([N+](=O)[O-])ccc3c(NCCCN(CCO)CCO)c2c1`, for which the GI50 in the assay with A549 NSCLC was 10900 nM; with UACC-257 melanoma, 2820 nM; with SNB-19 CNS, 5.68 µM; in the assay on ACHN renal, 10 µM; in the assay with CAKI-1 renal, 10900 nM; in the assay on OVCAR-5 ovarian, 12.5 µM. The GI50 in the assay on OVCAR-8 ovarian is 3310 nM; with HCC-2998 colon, 2870 nM. The TGI in the assay with A549 NSCLC came to 24.6 µM; in the assay with UACC-257 melanoma it was 7.55 µM; in the assay on SNB-19 CNS it was 18.6 µM; with ACHN renal, 23 µM; in the assay with CAKI-1 renal, 22.8 µM; with OVCAR-5 ovarian, 25.2 µM. For the same molecule, the TGI came out at 11.2 µM in the assay with OVCAR-8 ovarian and 7.88 µM in the assay on HCC-2998 colon.

As for `Cn1c(/C=C(\C#N)c2cccc(C(F)(F)F)c2)nc2c(N3CCOCC3)nc(Cl)nc21`, the GI50 is 1310 nM with A549 NSCLC; 1370 nM in the assay on UACC-257 melanoma; 1.44 µM with SNB-19 CNS; 0.444 µM with ACHN renal; 656 nM with CAKI-1 renal; 1.32 µM in the assay on OVCAR-5 ovarian. The GI50 in the assay with OVCAR-8 ovarian is 567 nM; with HCC-2998 colon, 1670 nM. The TGI was found to be 3.3 µM in the assay on A549 NSCLC; 2.89 µM with UACC-257 melanoma; 2.8 µM in the assay on SNB-19 CNS; 1.57 µM in the assay with ACHN renal; 1.97 µM with CAKI-1 renal; 2.87 µM in the assay on OVCAR-5 ovarian. Besides, the values for the TGI in the assay on OVCAR-8 ovarian and in the assay on HCC-2998 colon were 2.16 µM and 3.2 µM, respectively.

Turning to `CN(C)C(=S)/N=c1\ss/c(=N\C(=S)N(C)C)n1-c1ccc(Cl)cc1`, the TGI in the assay on A549 NSCLC, with UACC-257 melanoma, with SNB-19 CNS, in the assay with XF 498 CNS, with ACHN renal and with CAKI-1 renal was > 100 µM each time. Also, the TGI in the assay on OVCAR-5 ovarian, in the assay on OVCAR-8 ovarian and in the assay with SNB-78 CNS was > 100 µM throughout.

Take `CCOc1ccccc1N1C(=O)C(=O)C(c2nc3ccccc3o2)/C(=N\N)C1=O` (configuration not stated): the TGI with A549 NSCLC, with UACC-257 melanoma, in the assay on SNB-19 CNS, in the assay with ACHN renal, in the assay with CAKI-1 renal and in the assay with OVCAR-5 ovarian was > 100 µM each time. For the same molecule, the TGI in the assay on OVCAR-8 ovarian, in the assay with SNB-78 CNS and in the assay on HCC-2998 colon was > 100 µM throughout.
